# Assay results from patent publication US4487708A (priority 1981, dated 1984).
# Key:
# [1] = compatibility of neutralizing amines with hydroquinone in solution; type: physicochemical; conditions: combined with hydroquinone
# Description: To provide convenient single-drum treatments, it was decided to test-formulate various dioxo aromatic compounds with neutralizing amines.
# [2] = room temperature oxygen scavenging test (flask with dissolved oxygen probe); conditions: for % O2 Removed: 60 seconds; for % O2 Removed / % O2 Removed At 60 Seconds: 23-25 °C; for % O2 Removed, 1 Minute: hydroquinone: pH 8.6, 22.5 °C, ratio 0.94, initial O2 7.7 ppm; for % O2 Removed At 60 Seconds: Table 11, hydroquinone 93 ppm
# [3] = oxygen scavenging efficacy at elevated temperature and pressure (hot water flow system)
# Procedure: In a first series of tests, the oxygen scavenging efficacies of various materials were evaluated under conditions of elevated temperature and pressure. The test apparatus used was essentially a stainless steel hot water flow system equipped with appropriate monitoring instrumentation. Demineralized feedwater, adjusted to the appropriate pH and initial dissolved oxygen level (controlled by nitrogen sparging), was pumped from a reservoir at ambient temperature into a once-through heater. Temperature was monitored continuously by means of thermocouples at several locations along the length of the flow tubing. A solution containing the oxygen scavenger test material was loaded into a pump driven syringe and fed continuously to the heated flow stream through a port containing a stainless steel ribbon mixing baffle. The feedwater containing dissolved oxygen and the test material then traversed the flow tubing via a by-pass comprising an additional length of coiled tubing. Contact (or reaction) time of the test material and dissolved oxygen was governed by the choice of coil length. The tendency of the temperature to drop during residence in the coiled tubing was offset by the use of thermostatted heating tapes which maintained the temperature in this tubing at 78±3° C. Upon exiting the coiled tubing, the stream flowed through a sample cooler to render the temperature of the liquid compatible with the operating range of a membrane-type dissolved oxygen probe. The cooled liquid was analyzed for dissolved oxygen via a D.O. flow cell, and pH was potentiometrically monitored in the flow tube immediately downstream of the D.O. probe. Outputs of the temperature, pH and dissolved oxygen probes during operation were monitored via strip chart recorders. The final destination of the reaction mixture was a reservoir which could be drained for analysis of reaction products, if desired.
# Temperature in the system could be maintained at 78±3+ C. under 4±1 psig. Residence time of the feedwater in the flow tube from chemical feed point to D.O. flow cell outlet was 4±0.2 minutes. Approximately 3.5 minutes of this total was spent in a 40' length of 0.402 inch i.d. coiled tubing. Entry into and residence in the sample cooler accounted for 0.5 minute of the total contact time.
# According to an article by J. W. Cohn and R. E. Powell, Jr., J. Amer.
# The test solutions were prepared by initially mixing 10 grams of test material and 90 grams of demineralized water in glass bottles and allowing the mixture to remain in a shaker for several hours. If complete dissolution for a given material was observed after shaking, the pH of the solution was measured. When the pH of the solution was below 10.0, 7N sodium hydroxide was added dropwise until this value was reached. The quantity of added sodium hydroxide was recorded and later used in corrections for the active concentration of the solution. When the pH value of a stock solution was above pH 10.0 without requiring the addition of caustic, the solution was not further modified.
# Results of these tests are reported in TABLE 1 below in terms of percent oxygen removed from the test stream. The precision of the initial and final dissolved oxygen values reported is approximately ±10%. […] The experimental uncertainties decrease with increasing values of percent dissolved oxygen removal.
# The specific experimental conditions were:
# Reaction Time=240±10 seconds
# [4] = cited from earlier work
# [5] = oxygen removal from feedwater of a working boiler (Example 2)
# Procedure: In order to compare the performance of hydroquinone with that of hydrazine under field-type conditions, a series of experiments were conducted on the feedwater of a working boiler. The test materials were fed to the deaerator storage tank, and the resultant change, if any, in dissolved oxygen level was measured on a sample flowing from the feedwater line through a membrane-type dissolved oxygen probe.
# During the tests, a relatively wide range of experimental conditions was encountered among the test parameters, reflecting the difficulty of attempting to obtain precise data during experiments performed on a working boiler.
# In order to provide some point of reference for judging oxygen scavenging efficacies while taking into account the diverse conditions experienced on a daily basis, hydrazine control runs were performed, whenever possible, under feedwater and boiler conditions similar to those encountered during testing of other test materials. The hydrazine control runs are reported below in Table 3, also in terms of % oxygen removal.
# [6] = thermal stability of amines / dioxo aromatic compounds (no method given); type: physicochemical; conditions: of the amines tested
# [7] = dissolution and storage stability of hydroquinone/methoxypropylamine solutions; type: physicochemical
# Procedure: The following 25 gram solutions were prepared and sealed in glass bottles (components listed in order of addition):
# Fifty (50) grams of each of the following solutions were prepared in glass bottles, sealed and placed on a shaker for two hours: […]
# [8] = for mu-amine required to effect dissolution: saturated solution, 10.0 g hydroquinone (6.3 + 3.7 g) in 89.5 g water
# Procedure: Volumes of mu-amines required to effect dissolution were recorded and converted to weights via density.
# [9] = cited from earlier work; remark: listed apart in the source
# [10] = Table 8, mu-amine combined with hydroquinone, 103 ppm each, final pH 9.3-10.5
# [11] = Table 1, 78±3 °C, 4±1 psig, contact 4±0.2 min, feedwater 58-100 ppm, pH 8.9-10.9, initial O2 1.8-2.3 ppm, hydrazine average of 9 runs, values below 20% may be artifacts
# [12] = Table 10, mu-amine combined with hydroquinone, 6.7 ppm each, 78±1 °C, 3-5 psig, 240±10 seconds, final pH 9.7, initial O2 1.0-1.5 ppm
# [13] = Table 5, hydrazine: pH 9.2, 26.5 °C, ratio 10.5, initial O2 0.87 ppm
# [14] = stock mu-amine 1.5 / hydroquinone 10.0 wt. %, HQ:mu-amine 6.67:1
# [15] = stock mu-amine 90.0 / hydroquinone 10.0 wt. %, HQ:mu-amine 1:9
# [16] = stock mu-amine 99.0 / hydroquinone 1.0 wt. %, HQ:mu-amine 1:99
# [17] = Table 9, mu-amine combined with hydroquinone, about 30 ppm / 10 ppm, 78±1 °C, 3-5 psig, 240±10 seconds, final pH 10.3, initial O2 500-750 ppb
# [18] = 6.3 g hydroquinone in 89.5 g demineralized water
compound,measurement,setting,value
CC(C)(C)N [tert-Butylamine],compatibility with hydroquinone in solution,[1],insoluble mass
NCCNCCNCCN [Triethylenetetramine],% O2 Removed,[2]; [10],89%
"Nc1ccccc1N [o-phenylenediamine, reference compound]",% O2 Removed,[3]; [11],10%
CC(O)CN (stereo not drawn) [Monoisopropanolamine],% O2 Removed,[3]; [12],98%
CCC(C)N (stereo not drawn) [sec-Butylamine],% O2 Removed,[2]; [10],74%
same,compatibility with hydroquinone in solution,[1],compatible with hydroquinone in solution
"Oc1cccc(O)c1 [resorcinol, reference compound]",% O2 Removed,[3]; [11],0%
NN [hydrazine],"% O2 Removed, 5 Minutes",[2]; [13],2%
same,"% O2 Removed, 1 Minute",[2]; [13],1%
same,pH of maximum oxygen scavenging efficacy,[4]; Cohn and Powell 1954,10.0-10.5 pH
same,decomposition temperature,[4]; forms ammonia,Above 400 ° F.
same,rate of reaction with oxygen,"[4]; low temperatures, such as room temperature",very slow at low temperatures
same,% O2 Removed,"[5]; Table 3, control run 1, 1.6 ppm actives, pH 8.8, steam load 11, initial O2 13.0 ppb",69%
same,% O2 Removed,"[5]; Table 3, control run 2, 1.1 ppm actives, pH 9.4, steam load 15, initial O2 4.0 ppb",50%
same,% O2 Removed,"[5]; Table 3, control run 3, 1.2 ppm actives, pH 8.6, steam load 15, initial O2 6.0 ppb",60%
same,% O2 Removed,"[5]; Table 3, control run 4, 1.0 ppm actives, pH 8.8, steam load 15, initial O2 5.8 ppb",55%
same,% O2 Removed,"[5]; Table 3, control run 5, 0.8 ppm actives, pH 9.4, steam load 11, initial O2 3.5 ppb",31%
same,% O2 Removed,"[5]; Table 3, control run 6, 1.6 ppm actives, pH 9.6, steam load 14, initial O2 4.0 ppb",30%
NCCO [Monoethanolamine],% O2 Removed,[2]; [10],75%
COCCCN [Methoxypropylamine],% O2 Removed At 60 Seconds,[2]; [14],96%
same,% O2 Removed At 60 Seconds,"[2]; stock mu-amine 2.0 / hydroquinone 10.0 wt. %, HQ:mu-amine 5:1",96%
same,% O2 Removed At 60 Seconds,"[2]; stock mu-amine 3.0 / hydroquinone 10.0 wt. %, HQ:mu-amine 3.33:1",96%
same,% O2 Removed At 60 Seconds,"[2]; stock mu-amine 15.0 / hydroquinone 15.0 wt. %, 1:1",95%
same,% O2 Removed At 60 Seconds,"[2]; stock mu-amine 20.0 / hydroquinone 20.0 wt. %, 1:1",98%
same,% O2 Removed At 60 Seconds,"[2]; stock mu-amine 30.0 / hydroquinone 30.0 wt. %, 1:1",98%
same,% O2 Removed At 60 Seconds,"[2]; stock mu-amine 40.0 / hydroquinone 40.0 wt. %, 1:1",94%
same,% O2 Removed At 60 Seconds,[2]; [15],94%
same,% O2 Removed At 60 Seconds,[2]; [16],96%
same,% O2 Removed,"[2]; Table 12, methoxypropylamine 1.0 / hydroquinone 1.0 wt. %, final pH 8.5",10%
same,% O2 Removed,"[2]; Table 12, methoxypropylamine 1.0 / hydroquinone 6.0 wt. %, final pH 8.4",78%
same,% O2 Removed,"[2]; Table 12, methoxypropylamine 3.0 / hydroquinone 3.0 wt. %, final pH 8.9",74%
same,% O2 Removed,"[2]; Table 12, methoxypropylamine 6.0 / hydroquinone 1.0 wt. %, final pH 9.0",17%
same,% O2 Removed,"[2]; Table 12, methoxypropylamine 6.0 / hydroquinone 6.0 wt. %, final pH 9.0",93%
same,% O2 Removed,[3]; [12],99%
same,thermal stability,[6],most thermally stable of the amines tested
same,lowest practical MOPA concentration in the mixture,[7]; 10% hydroquinone aqueous solution,2%
same,MOPA required to dissolve hydroquinone,"[8]; 10.0 g hydroquinone, neat MOPA",12.5 grams
same,mu-amine required to effect dissolution,[8],1.7 grams
NCCN [Ethylenediamine],% O2 Removed,[2]; [10],85%
same,% O2 Removed,[3]; [17],99%
NC1CCCCC1 [Cyclohexylamine],compatibility with hydroquinone in solution,[1],precipitated out of solution
CC(O)CNCC(C)O (stereo not drawn) [Diisopropanolamine],% O2 Removed,[2]; [10],86%
CN(C)CCCN [Dimethylaminopropylamine],% O2 Removed,[2]; [10],76%
same,% O2 Removed At 60 Seconds,[2]; [14],94%
same,% O2 Removed At 60 Seconds,"[2]; stock mu-amine 30.0 / hydroquinone 10.0 wt. %, HQ:mu-amine 1:3",99%
same,% O2 Removed At 60 Seconds,[2]; [15],98%
same,% O2 Removed At 60 Seconds,[2]; [16],50%
same,mu-amine required to effect dissolution,[8],1.7 grams
Oc1ccc(O)cc1 [hydroquinone],"% O2 Removed, 1 Minute",[2]; [13],29%
same,% O2 Removed,"[2]; Table 12, mu-amine 0 / hydroquinone 1.0 wt. %, final pH 8.1",9%
same,% O2 Removed,"[2]; Table 12, mu-amine 0 / hydroquinone 3.0 wt. %, final pH 8.0",17%
same,% O2 Removed,"[2]; Table 12, mu-amine 0 / hydroquinone 6.0 wt. %, final pH 7.9",27%
same,% O2 Removed,[3]; [11],97%
same,aqueous solubility (accepted literature value),[9]; 25 °C,~7%
same,solubility in water,[9]; hydroquinone alone,about 7%
same,active hydroquinone concentration of stable aqueous solution,"[7]; 1 to 1 with methoxypropylamine (40%), sealed storage for 12 days",up to 40%
same,"dissolution time, solution #1",[8]; [18],23 min
same,"dissolution time, solution #2",[8]; [18],19 min
same,"dissolution time, solution #3",[8]; [18],21 min
Dimethyl(iso)propanolamine,% O2 Removed,[2]; [10],73%
same,% O2 Removed,[3]; [17],98%
"Nc1ccc(N)cc1 [p-phenylenediamine, reference compound]",% O2 Removed,[3]; [11],35%
C1COCCN1 [Morpholine],compatibility with hydroquinone in solution,[1],precipitated out of solution
